Measurements from ChEMBL document CHEMBL4680228 (Eur J Med Chem, 2020).
Values belong to the compound of their own block, whether it stands above or below them. The source made the active and inactive calls. No cut-off for these calls is given here.

Key:
SR = assay: Antiproliferative activity against human SR cells assessed as reduction in cell growth; type: functional, cell-based
[1] = target: T1, von Hippel-Lindau disease tumor suppressor/ALK tyrosine kinase receptor/Nucleophosmin (Homo sapiens, UniProt Q9UM73+P06748+P40337); assay: Protac activity at VHL/NPM-ALK fusion protein in human SR cells assessed as degradation of ALK; type: cell-based
Target sequence in this assay (Q9UM73 whole entry, the tested form may be a part): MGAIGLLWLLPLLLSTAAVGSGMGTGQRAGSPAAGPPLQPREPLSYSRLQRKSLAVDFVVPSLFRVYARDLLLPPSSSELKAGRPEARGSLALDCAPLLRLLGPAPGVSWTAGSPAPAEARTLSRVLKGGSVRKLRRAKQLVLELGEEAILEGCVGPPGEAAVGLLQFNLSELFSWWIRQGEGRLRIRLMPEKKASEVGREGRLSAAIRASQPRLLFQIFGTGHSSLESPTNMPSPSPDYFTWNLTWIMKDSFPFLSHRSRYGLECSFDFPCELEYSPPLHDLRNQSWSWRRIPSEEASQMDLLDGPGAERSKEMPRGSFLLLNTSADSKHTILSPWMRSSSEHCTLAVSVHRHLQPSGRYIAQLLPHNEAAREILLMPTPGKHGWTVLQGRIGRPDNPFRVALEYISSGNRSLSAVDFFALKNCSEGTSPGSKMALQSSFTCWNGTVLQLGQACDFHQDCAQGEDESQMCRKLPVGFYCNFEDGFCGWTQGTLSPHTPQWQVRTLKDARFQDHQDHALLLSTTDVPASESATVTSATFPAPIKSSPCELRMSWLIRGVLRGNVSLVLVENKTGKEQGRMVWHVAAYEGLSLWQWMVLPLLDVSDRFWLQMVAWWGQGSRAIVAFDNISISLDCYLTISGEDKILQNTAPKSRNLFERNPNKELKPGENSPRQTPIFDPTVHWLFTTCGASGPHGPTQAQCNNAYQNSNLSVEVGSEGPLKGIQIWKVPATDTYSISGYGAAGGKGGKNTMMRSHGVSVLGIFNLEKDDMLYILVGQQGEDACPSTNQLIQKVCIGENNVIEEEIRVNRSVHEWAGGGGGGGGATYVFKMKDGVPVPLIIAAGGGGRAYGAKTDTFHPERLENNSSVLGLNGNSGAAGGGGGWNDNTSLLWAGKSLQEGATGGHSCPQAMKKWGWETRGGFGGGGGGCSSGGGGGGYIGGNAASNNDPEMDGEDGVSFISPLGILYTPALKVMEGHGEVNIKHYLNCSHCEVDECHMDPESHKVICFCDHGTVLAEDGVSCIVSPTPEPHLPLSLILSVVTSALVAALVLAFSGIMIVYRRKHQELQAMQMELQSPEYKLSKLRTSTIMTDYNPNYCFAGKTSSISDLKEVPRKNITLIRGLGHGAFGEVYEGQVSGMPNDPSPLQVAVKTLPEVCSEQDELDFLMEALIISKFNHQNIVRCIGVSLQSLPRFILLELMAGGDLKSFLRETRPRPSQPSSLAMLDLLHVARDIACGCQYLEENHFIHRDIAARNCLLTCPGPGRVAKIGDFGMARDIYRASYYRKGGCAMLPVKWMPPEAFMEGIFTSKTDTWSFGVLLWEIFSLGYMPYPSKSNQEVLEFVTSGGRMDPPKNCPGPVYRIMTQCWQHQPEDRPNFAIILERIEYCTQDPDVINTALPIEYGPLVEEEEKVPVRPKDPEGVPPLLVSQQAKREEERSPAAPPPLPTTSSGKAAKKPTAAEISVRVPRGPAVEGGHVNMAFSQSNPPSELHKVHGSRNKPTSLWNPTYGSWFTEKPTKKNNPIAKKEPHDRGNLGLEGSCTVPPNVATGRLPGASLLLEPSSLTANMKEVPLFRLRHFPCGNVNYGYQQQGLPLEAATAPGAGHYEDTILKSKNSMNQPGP
Target sequence in this assay (P06748 whole entry, the tested form may be a part): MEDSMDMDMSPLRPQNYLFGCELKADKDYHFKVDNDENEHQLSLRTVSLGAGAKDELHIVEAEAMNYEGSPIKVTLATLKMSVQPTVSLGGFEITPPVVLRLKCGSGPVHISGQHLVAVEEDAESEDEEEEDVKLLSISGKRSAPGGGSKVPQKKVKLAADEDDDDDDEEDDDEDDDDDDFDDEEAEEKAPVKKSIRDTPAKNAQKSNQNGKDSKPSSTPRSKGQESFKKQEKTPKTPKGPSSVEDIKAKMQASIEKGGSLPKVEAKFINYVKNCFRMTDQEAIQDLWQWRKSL
Target sequence in this assay (P40337 whole entry, the tested form may be a part): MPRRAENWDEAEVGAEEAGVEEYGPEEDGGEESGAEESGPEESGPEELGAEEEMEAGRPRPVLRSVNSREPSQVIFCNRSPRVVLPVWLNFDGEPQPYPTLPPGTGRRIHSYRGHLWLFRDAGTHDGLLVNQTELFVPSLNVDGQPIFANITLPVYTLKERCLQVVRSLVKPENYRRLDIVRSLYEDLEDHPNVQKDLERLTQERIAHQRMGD

[2] = target: NPM/ALK (Nucleophosmin/ALK tyrosine kinase receptor) (Homo sapiens) (UniProt Q9UM73+P06748); assay: Induction of NPM-ALK fusion protein degradation in human SR cells; type: cell-based
NCI-H2228 = assay: Antiproliferative activity against human NCI-H2228 cells expressing EML4-ALK assessed as reduction in cell viability incubated for 72 hrs by CCK8 assay; type: functional, cell-based; details: NCI-H2228, 72 h
NCI-H69 = assay: Antiproliferative activity against human NCI-H69 cells assessed as inhibition of cell proliferation; type: functional, cell-based
cells = details: Homo sapiens, NCI-H1688
Description: Antiproliferative activity against human NCI-H1688 cells assessed as inhibition of cell proliferation

[3] = target: T1, von Hippel-Lindau disease tumor suppressor/ALK tyrosine kinase receptor/Nucleophosmin; assay: Protac activity at VHL/NPM-ALK fusion protein in human SR cells assessed as degradation of ALK at 100 nM measured after 24 hrs; type: cell-based
Target sequence in this assay (P06748 whole entry partner, the tested form may be a part): as the sequence (P06748 whole entry, the tested form may be a part) above
Target sequence in this assay (P40337 whole entry partner, the tested form may be a part): as the sequence (P40337 whole entry, the tested form may be a part) above
Target sequence in this assay (Q9UM73 19-1620 limits assumed): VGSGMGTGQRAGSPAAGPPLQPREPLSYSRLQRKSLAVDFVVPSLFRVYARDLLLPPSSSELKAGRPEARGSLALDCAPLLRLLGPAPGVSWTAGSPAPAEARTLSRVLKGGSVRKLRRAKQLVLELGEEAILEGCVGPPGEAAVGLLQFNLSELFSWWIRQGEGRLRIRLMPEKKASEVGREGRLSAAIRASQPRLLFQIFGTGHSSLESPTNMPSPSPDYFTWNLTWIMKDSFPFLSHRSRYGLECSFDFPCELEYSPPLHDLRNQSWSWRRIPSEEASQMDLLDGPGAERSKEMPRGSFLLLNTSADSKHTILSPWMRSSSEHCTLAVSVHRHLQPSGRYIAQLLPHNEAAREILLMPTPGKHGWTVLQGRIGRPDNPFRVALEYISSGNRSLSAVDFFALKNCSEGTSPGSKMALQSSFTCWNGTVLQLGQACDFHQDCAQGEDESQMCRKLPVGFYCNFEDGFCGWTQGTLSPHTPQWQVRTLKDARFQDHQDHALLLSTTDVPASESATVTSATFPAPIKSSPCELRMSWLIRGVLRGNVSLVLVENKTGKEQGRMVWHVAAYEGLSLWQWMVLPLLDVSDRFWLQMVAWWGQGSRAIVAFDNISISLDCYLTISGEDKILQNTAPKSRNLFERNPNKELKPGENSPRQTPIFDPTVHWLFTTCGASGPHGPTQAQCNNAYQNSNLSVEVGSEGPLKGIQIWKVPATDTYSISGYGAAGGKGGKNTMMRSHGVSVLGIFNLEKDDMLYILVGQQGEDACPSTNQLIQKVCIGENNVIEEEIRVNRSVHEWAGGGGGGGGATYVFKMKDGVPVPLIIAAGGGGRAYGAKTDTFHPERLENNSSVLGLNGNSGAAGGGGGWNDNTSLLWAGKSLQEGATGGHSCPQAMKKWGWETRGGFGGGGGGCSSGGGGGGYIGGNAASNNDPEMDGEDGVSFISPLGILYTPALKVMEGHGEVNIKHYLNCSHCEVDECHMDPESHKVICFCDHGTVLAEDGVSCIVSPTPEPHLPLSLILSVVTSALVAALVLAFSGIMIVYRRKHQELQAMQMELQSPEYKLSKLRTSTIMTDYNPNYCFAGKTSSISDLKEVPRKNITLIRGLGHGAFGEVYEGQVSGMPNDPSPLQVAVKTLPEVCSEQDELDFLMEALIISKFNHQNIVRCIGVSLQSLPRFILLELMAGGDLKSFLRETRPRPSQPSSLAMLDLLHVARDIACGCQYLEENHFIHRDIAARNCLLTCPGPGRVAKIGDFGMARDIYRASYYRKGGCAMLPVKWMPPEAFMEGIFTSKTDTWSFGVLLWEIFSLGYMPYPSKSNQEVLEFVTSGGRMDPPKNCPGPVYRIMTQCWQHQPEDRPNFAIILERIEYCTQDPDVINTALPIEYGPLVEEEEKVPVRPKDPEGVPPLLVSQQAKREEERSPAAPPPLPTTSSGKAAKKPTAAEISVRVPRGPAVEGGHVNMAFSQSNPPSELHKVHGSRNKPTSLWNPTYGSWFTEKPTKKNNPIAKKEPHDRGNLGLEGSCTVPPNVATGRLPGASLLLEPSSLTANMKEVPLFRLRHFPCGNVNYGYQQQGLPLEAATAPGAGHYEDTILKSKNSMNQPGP

[4] = target: T1, von Hippel-Lindau disease tumor suppressor/ALK tyrosine kinase receptor/Nucleophosmin; assay: Protac activity at VHL/NPM-ALK fusion protein in human SR cells assessed as reduction in STAT3 phosphorylation at 1 to 500 nM; type: cell-based; details: dose 1-500 nM
Target sequence in this assay (P06748 whole entry partner, the tested form may be a part): as the sequence (P06748 whole entry, the tested form may be a part) above
Target sequence in this assay (P40337 whole entry partner, the tested form may be a part): as the sequence (P40337 whole entry, the tested form may be a part) above
Target sequence in this assay (Q9UM73 19-1620 limits assumed): as the sequence (Q9UM73 19-1620 limits assumed) above

[5] = target: T1, von Hippel-Lindau disease tumor suppressor/ALK tyrosine kinase receptor/Nucleophosmin; assay: Protac activity at VHL/NPM-ALK fusion protein in human SR cells assessed as reduction in ALK phosphorylation at 50 nM; type: cell-based; parameters: scale not given: the % may be the effect or the level left
Target sequence in this assay (P06748 whole entry partner, the tested form may be a part): as the sequence (P06748 whole entry, the tested form may be a part) above
Target sequence in this assay (P40337 whole entry partner, the tested form may be a part): as the sequence (P40337 whole entry, the tested form may be a part) above
Target sequence in this assay (Q9UM73 19-1620 limits assumed): as the sequence (Q9UM73 19-1620 limits assumed) above

[6] = target: von Hippel-Lindau disease tumor suppressor/ALK tyrosine kinase receptor/Echinoderm microtubule-associated protein-like 4 (Homo sapiens, UniProt P40337+Q9HC35+Q9UM73, G1202R)
[7] = target: T1, von Hippel-Lindau disease tumor suppressor/ALK tyrosine kinase receptor/Nucleophosmin; assay: Protac activity at VHL/NPM-ALK fusion protein in human SR cells assessed as degradation of ALK at 100 nM; type: cell-based; details: TDE = time-dependent effect
Target sequence in this assay (P06748 whole entry partner, the tested form may be a part): as the sequence (P06748 whole entry, the tested form may be a part) above
Target sequence in this assay (P40337 whole entry partner, the tested form may be a part): as the sequence (P40337 whole entry, the tested form may be a part) above
Target sequence in this assay (Q9UM73 19-1620 limits assumed): as the sequence (Q9UM73 19-1620 limits assumed) above

[8] = target: T1, von Hippel-Lindau disease tumor suppressor/ALK tyrosine kinase receptor/Nucleophosmin; assay: Protac activity at VHL/NPM-ALK fusion protein in human SR cells assessed as degradation of ALK measured after 16 hrs in presence of proteasome inhibitor MG132; type: cell-based
Target sequence in this assay (P06748 whole entry partner, the tested form may be a part): as the sequence (P06748 whole entry, the tested form may be a part) above
Target sequence in this assay (P40337 whole entry partner, the tested form may be a part): as the sequence (P40337 whole entry, the tested form may be a part) above
Target sequence in this assay (Q9UM73 19-1620 limits assumed): as the sequence (Q9UM73 19-1620 limits assumed) above

[9] = target: T1, von Hippel-Lindau disease tumor suppressor/ALK tyrosine kinase receptor/Nucleophosmin; assay: Protac activity at VHL/NPM-ALK fusion protein in human SR cells assessed as degradation of ALK measured after 16 hrs in presence of proteasome inhibitor MLN4924; type: cell-based
Target sequence in this assay (P06748 whole entry partner, the tested form may be a part): as the sequence (P06748 whole entry, the tested form may be a part) above
Target sequence in this assay (P40337 whole entry partner, the tested form may be a part): as the sequence (P40337 whole entry, the tested form may be a part) above
Target sequence in this assay (Q9UM73 19-1620 limits assumed): as the sequence (Q9UM73 19-1620 limits assumed) above

[10] = target: T1, von Hippel-Lindau disease tumor suppressor/ALK tyrosine kinase receptor/Nucleophosmin; assay: Protac activity at VHL/NPM-ALK fusion protein in human SR cells assessed as reduction in ALK phosphorylation at 10 nM; type: cell-based
[11] = target: von Hippel-Lindau disease tumor suppressor/Insulin-like growth factor 1 receptor (Homo sapiens) (UniProt P08069+P40337); assay: Protac activity at VHL/IGF1R in human SR cells assessed as induction of IGF1R degradation; type: cell-based
[12] = target: von Hippel-Lindau disease tumor suppressor/Receptor-type tyrosine-protein kinase FLT3 (Homo sapiens) (UniProt P36888+P40337); assay: Protac activity at VHL/FLT3 in human SR cells assessed as induction of FLT3 degradation; type: cell-based
[13] = target: von Hippel-Lindau disease tumor suppressor/Proto-oncogene tyrosine-protein kinase ROS (Homo sapiens) (UniProt P08922+P40337); assay: Protac activity at VHL/ROS1 in human SR cells assessed as induction of ROS1 degradation; type: cell-based
[14] = target: von Hippel-Lindau disease tumor suppressor/Aurora kinase A (Homo sapiens) (UniProt O14965+P40337); assay: Protac activity at VHL/Aurora A in human SR cells assessed as induction of Aurora A degradation; type: cell-based
[15] = target: von Hippel-Lindau disease tumor suppressor/Uridine-cytidine kinase 2 (Homo sapiens) (UniProt Q9BZX2+P40337); assay: Protac activity at VHL/UCK2 in human SR cells assessed as induction of UCK2 degradation; type: cell-based
[16] = target: von Hippel-Lindau disease tumor suppressor/Cyclin-G-associated kinase (Homo sapiens) (UniProt O14976+P40337); assay: Protac activity at VHL/GAK in human SR cells assessed as induction of GAK degradation; type: cell-based
[17] = target: von Hippel-Lindau disease tumor suppressor/ALK tyrosine kinase receptor/Echinoderm microtubule-associated protein-like 4 (Homo sapiens) (UniProt Q9UM73+Q9HC35+P40337); assay: Protac activity at VHL/EML4-ALK fusion protein in human NCI-H2228 cells assessed as induction of ALK degradation at 50 to 500 nM; type: cell-based; details: dose 50-500 nM
[18] = target: von Hippel-Lindau disease tumor suppressor/ALK tyrosine kinase receptor/Echinoderm microtubule-associated protein-like 4 (Homo sapiens, UniProt Q9UM73+Q9HC35+P40337, G1202R); assay: Protac activity at VHL/EML4-ALK G1202R mutant fusion protein (unknown origin) expressed in HEK293T cells assessed as induction of ALK degradation by Western blot analysis; type: cell-based
EML4-ALK = EML4-ALK (Homo sapiens, UniProt Q9UM73, G1202R); assay: Inhibition of EML4-ALK G1202R mutant fusion protein (unknown origin) expressed in HEK293T cells; type: cell-based
[19] = target: T1, von Hippel-Lindau disease tumor suppressor/ALK tyrosine kinase receptor/Nucleophosmin; assay: Protac activity at VHL/NPM-ALK fusion protein in human SR cells assessed as induction of ALK degradation 100 nM treated for 24 hrs followed by compound washout and measured after 24 to 48 hrs by Western blot analysis; type: cell-based

SMILES: COc1cc(N2CCC(NC(=O)CCCCCCCCCC(=O)N[C@H](C(=O)N3C[C@@H](O)C[C@H]3C(=O)NCc3ccc(-c4scnc4C)cc3)C(C)(C)C)CC2)ccc1Nc1ncc(Cl)c(Nc2ccccc2P(C)(C)=O)n1
- IC50 (SR): 5.5 nM
- Activity [3]: inactive
- Activity [4]: Active
- Activity [5]: 100%
- IC50 (NCI-H2228): 114 nM
- IC50 [6]: 608 nM

SMILES: COc1cc(N2CCC(NC(=O)CCC(=O)N[C@H](C(=O)N3C[C@H](O)C[C@H]3C(=O)NCc3ccc(-c4scnc4C)cc3)C(C)(C)C)CC2)ccc1Nc1ncc(Cl)c(Nc2ccccc2P(C)(C)=O)n1
- Activity (SR): Active

SMILES: COc1cc(N2CCC(N3CCN(C(=O)CCOCCOCCOCCOCCOCCC(=O)N[C@H](C(=O)N4C[C@H](O)C[C@H]4C(=O)NCc4ccc(-c5scnc5C)cc4)C(C)(C)C)CC3)CC2)ccc1Nc1ncc(Cl)c(Nc2ccccc2P(C)(C)=O)n1
- Activity (SR): inactive

SMILES: COc1cc(N2CCC(N3CCN(C(=O)CCCCC(=O)N[C@H](C(=O)N4C[C@H](O)C[C@H]4C(=O)NCc4ccc(-c5scnc5C)cc4)C(C)(C)C)CC3)CC2)ccc1Nc1ncc(Cl)c(Nc2ccccc2P(C)(C)=O)n1
- Activity (SR): Active

SMILES: COc1cc(N2CCC(NC(=O)CCOCCOCCOCCOCCC(=O)N[C@H](C(=O)N3C[C@H](O)C[C@H]3C(=O)NCc3ccc(-c4scnc4C)cc3)C(C)(C)C)CC2)ccc1Nc1ncc(Cl)c(Nc2ccccc2P(C)(C)=O)n1
- Activity (SR): inactive

SMILES: COc1cc(N2CCC(NC(=O)CCCCCCCCCC(=O)N[C@H](C(=O)N3C[C@H](O)C[C@H]3C(=O)NCc3ccc(-c4scnc4C)cc3)C(C)(C)C)CC2)ccc1Nc1ncc(Cl)c(Nc2ccccc2P(C)(C)=O)n1
- IC50 (SR): 1.7 nM
- DC50 [1]: 7 nM
- Activity [7]: Tde
- Activity [8]: inactive
- Activity [9]: inactive
- Activity [10]: Active
- Activity [4]: Active
- Activity [11]: inactive
- Activity [12]: inactive
- Activity [13]: inactive
- Activity [14]: inactive
- Activity [15]: inactive
- Activity [16]: inactive
- IC50 (NCI-H2228): 46 nM
- Activity [17]: Active
- DC50 [18]: < 200 nM
- IC50 (EML4-ALK): 146 nM
- IC50 (NCI-H69): 799 nM
- Activity [19]: Active
- IC50 [6]: 166 nM
- IC50 (cells): 259 nM

SMILES: COc1cc(N2CCC(N3CCN(C(=O)CCOCCOCCC(=O)N[C@H](C(=O)N4C[C@H](O)C[C@H]4C(=O)NCc4ccc(-c5scnc5C)cc4)C(C)(C)C)CC3)CC2)ccc1Nc1ncc(Cl)c(Nc2ccccc2P(C)(C)=O)n1
- Activity (SR): inactive

SMILES: COc1cc(N2CCC(N3CCN(C(=O)CCCC(=O)N[C@H](C(=O)N4C[C@H](O)C[C@H]4C(=O)NCc4ccc(-c5scnc5C)cc4)C(C)(C)C)CC3)CC2)ccc1Nc1ncc(Cl)c(Nc2ccccc2P(C)(C)=O)n1
- Activity (SR): Active

SMILES: COc1cc(N2CCC(NC(=O)CCOCCOCCC(=O)N[C@H](C(=O)N3C[C@H](O)C[C@H]3C(=O)NCc3ccc(-c4scnc4C)cc3)C(C)(C)C)CC2)ccc1Nc1ncc(Cl)c(Nc2ccccc2P(C)(C)=O)n1
- Activity (SR): inactive

SMILES: COc1cc(N2CCC(N3CCNCC3)CC2)ccc1Nc1ncc(Cl)c(Nc2ccccc2P(C)(C)=O)n1
- IC50 (SR): 6.8 nM
- Activity [2]: inactive

SMILES: COc1cc(N2CCN(C(=O)CCOCCOCCOCCOCCOCCC(=O)N[C@H](C(=O)N3C[C@H](O)C[C@H]3C(=O)NCc3ccc(-c4scnc4C)cc3)C(C)(C)C)CC2)ccc1Nc1ncc(Cl)c(Nc2ccccc2P(C)(C)=O)n1
- Activity (SR): inactive

Further lines, with some results ahead:

- DC50 [1]: 15 nM
SMILES: COc1cc(N2CCN(C(=O)CCCCCCCC(=O)N[C@H](C(=O)N3C[C@H](O)C[C@H]3C(=O)NCc3ccc(-c4scnc4C)cc3)C(C)(C)C)CC2)ccc1Nc1ncc(Cl)c(Nc2ccccc2P(C)(C)=O)n1
- Activity (SR): Active

- Activity [2]: inactive
- IC50 (NCI-H2228): 58.2 nM
- IC50 (NCI-H69): 2600 nM
- IC50 (cells): 691 nM
SMILES: COc1cc(N2CCC(N3CCN(C)CC3)CC2)ccc1Nc1ncc(Cl)c(Nc2ccccc2P(C)(C)=O)n1 [BRIGATINIB]
- IC50 (SR): 2.7 nM

- DC50 [1]: > 50 nM
SMILES: COc1cc(N2CCN(C(=O)CCCCCCCCC(=O)N[C@H](C(=O)N3C[C@H](O)C[C@H]3C(=O)NCc3ccc(-c4scnc4C)cc3)C(C)(C)C)CC2)ccc1Nc1ncc(Cl)c(Nc2ccccc2P(C)(C)=O)n1
- Activity (SR): Active

- DC50 [1]: 25.1 nM
SMILES: COc1cc(N2CCC(N3CCN(C(=O)CCCCCCCC(=O)N[C@H](C(=O)N4C[C@H](O)C[C@H]4C(=O)NCc4ccc(-c5scnc5C)cc4)C(C)(C)C)CC3)CC2)ccc1Nc1ncc(Cl)c(Nc2ccccc2P(C)(C)=O)n1
- Activity (SR): Active

- DC50 [1]: 7.2 nM
SMILES: COc1cc(N2CCC(NC(=O)CCCCCCCCC(=O)N[C@H](C(=O)N3C[C@H](O)C[C@H]3C(=O)NCc3ccc(-c4scnc4C)cc3)C(C)(C)C)CC2)ccc1Nc1ncc(Cl)c(Nc2ccccc2P(C)(C)=O)n1
- Activity (SR): Active

- DC50 [1]: 11.4 nM
SMILES: COc1cc(N2CCC(N3CCN(C(=O)CCCCCCC(=O)N[C@H](C(=O)N4C[C@H](O)C[C@H]4C(=O)NCc4ccc(-c5scnc5C)cc4)C(C)(C)C)CC3)CC2)ccc1Nc1ncc(Cl)c(Nc2ccccc2P(C)(C)=O)n1
- Activity (SR): Active

- Activity [2]: inactive
SMILES: COc1cc(N2CCC(N)CC2)ccc1Nc1ncc(Cl)c(Nc2ccccc2P(C)(C)=O)n1
- IC50 (SR): 1.7 nM

- DC50 [1]: > 50 nM
SMILES: COc1cc(N2CCN(C(=O)CCCCCCC(=O)N[C@H](C(=O)N3C[C@H](O)C[C@H]3C(=O)NCc3ccc(-c4scnc4C)cc3)C(C)(C)C)CC2)ccc1Nc1ncc(Cl)c(Nc2ccccc2P(C)(C)=O)n1
- Activity (SR): Active

- IC50 (NCI-H69): > 40000 nM
- IC50 (cells): > 45000 nM
SMILES: Cc1ncsc1-c1ccc(CNC(=O)[C@@H]2C[C@@H](O)CN2C(=O)[C@@H](NC(=O)CCCCCCCCCC(=O)O)C(C)(C)C)cc1

- DC50 [1]: 9.1 nM
SMILES: COc1cc(N2CCC(NC(=O)CCCCCCC(=O)N[C@H](C(=O)N3C[C@H](O)C[C@H]3C(=O)NCc3ccc(-c4scnc4C)cc3)C(C)(C)C)CC2)ccc1Nc1ncc(Cl)c(Nc2ccccc2P(C)(C)=O)n1
- Activity (SR): Active

- DC50 [1]: 20.9 nM
SMILES: COc1cc(N2CCC(NC(=O)CCCCCCCC(=O)N[C@H](C(=O)N3C[C@H](O)C[C@H]3C(=O)NCc3ccc(-c4scnc4C)cc3)C(C)(C)C)CC2)ccc1Nc1ncc(Cl)c(Nc2ccccc2P(C)(C)=O)n1
- Activity (SR): Active

- DC50 [1]: 7.5 nM
SMILES: COc1cc(N2CCC(N3CCN(C(=O)CCCCCCCCC(=O)N[C@H](C(=O)N4C[C@H](O)C[C@H]4C(=O)NCc4ccc(-c5scnc5C)cc4)C(C)(C)C)CC3)CC2)ccc1Nc1ncc(Cl)c(Nc2ccccc2P(C)(C)=O)n1
- Activity (SR): Active
